The values that follow come from publication PMC6266305 (Nutrients, 2018).

Read-outs that look alike come from different tables or passages of the source.

On the set-up of data set [1]: method as in PMID 27355793. To be noted: Tyr from olives; cited from earlier work.
Data set [2] is described as follows: In vitro digestion model: bioaccessibility of alperujo phenolic compounds added to a test meal (percentage found in the aqueous phase of the digesta). In kind it is in vitro ADME. To be noted: for recovery: pig. On the procedure: The in vitro digestion was carried out as previously described. […] The mixture was dispersed with Ultra-Turrax® (Ika) and artificial saliva (2.5 mL, pH 7) was added to the mixture. The sample was incubated for 10 min at 37 °C in a shaking incubator. The pH of the gastric medium was adjusted to 4.00 ± 0.02 with 1 M HCl. Then, porcine pepsin (2 mL, 40 mg/mL in 0.1 M HCl) was added and the homogenate was incubated at 37 °C in a shaking incubator for 30 min simulating the gastric step. The pH of the mixture was raised to 6.00 ± 0.02 with 0.9 M NaHCO3 and 13 mL of a mixture of porcine bile extract (39.08 mg/mL) and pancreatin (2.08 mg/mL) in 0.1 M trisodium citrate (pH 6) were added. Samples were incubated in a shaking incubator at 37 °C for 30 min to complete the digestion process. The final mixture representing the digesta was centrifuged (2500 g for 1 h at 10 °C) to separate the aqueous fraction. […] All analyses were run in quadruplicate. Aliquots from salivary, gastric, and duodenal steps were frozen at −80 °C until use. […] After centrifugation (3560 g for 10 min at 4 °C), the lower phase was collected. The solid bottom was re-extracted with 0.3 mL of ethanol and vortexed for 10 min. The second ethanol phase recovered was pooled to the previously collected phase, and then dried using a Speed-Vac®. The dried extracts were dissolved in 200 µL of water. Apical media were directly injected. […] All samples were stored at −80 °C before analysis. All samples were analyzed by UHPLC-DAD-MS using an Acquity UPLC® system that was linked to both a diode-array detector and a Bruker Daltonics HCT Ultra Ion Traps mass spectrometer equipped with an Electron Spray Ionization (ESI) source operating in negative ion mode. The separation was performed on an Acquity C18 BEH column (50 × 2.1 mm i.d., 1.7 µm) kept at 35 °C. The solvents were (A) water/formic acid (99.5/0.5) and (B) acetonitrile. […] Along the three steps of the gradient, the flow rate was 0.30, 0.35, and 0.40 mL/min. […] Chromatograms were acquired at 280 nm. The spectroscopic detection was performed in the range 200–800 nm with a resolution of 1.2 nm.

Where [3] appears, read: pH 6, in vitro digestion with test meal, average of alperujo and alperujo-CD, mean ± SD, read-out: Bioaccessibility (recovery in the final aqueous phase at the duodenal step).
Setting [4] is: pH 6, in vitro digestion, relative to the initial quantity, read-out: Recovery in the digesta.

As to `OCCc1ccc(O)cc1` [Tyr, tyrosol], in data set [1], the “Higher bioaccessibility of Tyr than HT” value was 16%. Besides, the recovery was 83.7 ± 2.4% in data set [2] (setting [3]) and at least 100% in data set [2] (setting [4]).

As to `O=C(O)/C=C/c1ccc(O)cc1` [p-Cm, p-coumaric acid], in data set [2] (in vitro digestion, final aqueous phase), the “Higher bioaccessibility of p-Cm than CA” value is recorded as 25%. The figures for the recovery in data set [2] (setting [3]) and in data set [2] (setting [4]) were above 87.9% and at least 100%, respectively.
